Test results: patent US6503709B1, “Methods for rapidly detecting methicillin resistant staphylococci” (priority 1997, dated 2003)
Converted amounts (≈) assume the structure as drawn. {Fluorescein} = fluorescein label; {Biotin} = biotin label; d = 2'-deoxy (DNA); r = 2'-OH (RNA)

Tests used:
[1] = test system: borderline oxacillin resistant S. aureus (BORSA) isolates; assay: Minimal inhibitory concentration (MIC) using E-Test; type: cell-based; settings: Staphylococcus aureus
Protocol: (§1) The crude lysate preparations, probe synthesis, CPT procedure and analyses were carried out as described in Example 4 except that the cells were picked from the TSA blood plate with a 1 μl plastic loop (PML Microbiological, Richmond, BC, Canada) resuspended in 50 μl of 0.05% Triton X-100® in 20 mM TES buffer (pH 6.8) and lysed with the addition of achromopeptidase (Wako Bioproducts) as described in Example 4. The DNA was heat denatured at 95° C. for 5 minutes prior to use. The experiment was carried out as an operator blind study. The isolates were also tested with conventional oxacillin screening agar (PML Microbiological), Kirby-Bauer Disc diffusion, minimal inhibitory concentration (MIC) using E-Test with 4% NaCl Meuller-Hinton and S. aureus were tested with the BBL® Crystal™ MRSA ID test (Beckton Dickinson).

[2] = test system: borderline oxacillin resistant S. aureus (BORSA) isolates; assay: Disk diffusion, oxacillin in the presence of clavulanic acid; type: cell-based, Staphylococcus aureus
Protocol: as §1

mecA gene [3] = assay: CPT Direct Fluorescence Assay (CPT-DFA) on crude lysates; type: biochemical, Staphylococcus aureus
Protocol: Two experiments were carried out for the detection of the mecA gene from clinical isolates using the direct fluorescence assay (DFA) combined with CPT (CPT-DFA). In the first experiment, 58 isolates were screened using a plate reader format, and in the second experiment, 120 isolates were screened using single tube reader format. Briefly, the assay uses a fluoresceinated and biotinylated chimeric probe complementary to a sequence within the mecA gene present in MRSA, but not in MSSA. The probe is labeled with fluorescein at the 5′ end and biotin at the 3′ end. The CPT assay is performed with crude lysate preparations from Staphylococcal cells in the presence of RNase H and the chimeric probe. After the cycling reaction, streptavidin coated magnetic beads are added to bind the uncleaved probe. The supernatant containing the cleaved fragment labeled with fluorescein is separated from the beads using a magnet and the supernatant is transferred to a glass tube or a microtiter plate for fluorescence measurement.
The source of the fifty-eight clinical isolates were obtained from Cleveland Hospital, Wishard Memorial and Vancouver General Hospital. All MRSA and MSSA cells were prepared and lysed essentially as described in Example 4 except that the lysates were prepared as either 2×McFarland No. 5 standard density or 1 μl loop of cells in 50 μl volume. One μl loop of cells is approximately equivalent to 5×McFarland No. 5 standard.
The streptavidin coated magnetic beads (Dynal M-280, Oslo, Norway) were prepared by washing two times in an equal volume of TES cycling buffer (4 mM MgCl2, 0.05% Triton X-100®, 20 mM TES, pH 6.8). The beads were then re-suspended in 10 times the original volume with cycling buffer containing NaCl. The diluted beads were added to the reactions containing biotinylated probe to a final concentration of 50 μg of beads/reaction and a final NaCl concentration of 1.5 M. Binding was carried out in a thermomixer (Eppendorf) at 37° C. with mixing at a speed of 13×100 minutes^−, for 10 minutes. The supernatant was then separated from the beads using an MPC magnet (Dynal).
Probe was detected after binding using the Fluoroskan fluorescence plate reader (Labsystems, Needham. Mass.) by placing the supernatant containing the cleaved probe in a well of MicroFluor ‘U’ black round bottom plate (Dynatech, Chantilly, Va.). To each well containing a sample, 150 μl of 0.22 M DEA pH 10 was added. Any bubbles in the wells were removed using the edge of a Kimwipe (Roswell, Ga.). The plate was scanned in the plate reader with an excitation wavelength of 485 nm, an emission wavelength of 538 nm and a scan/well time of 20×0.1 sec, at room temperature. Similar detection using the Beacon-2000 tube reader (Panvera, Madison, Wis.) was performed, by placing the supernatant containing the probe in a borosilicate glass tube (Kimble, Toledo, Ohio), that contains 11 μl of 2.0 M DEA, pH 10. The samples were then vortexed and the fluorescence intensity was measured using the static mode of the Beacon-2000 instrument. The excitation and emission wavelengths were 485 nm and 515 nm respectively and an average of 10 read cycles at 25° C. was used.
The assay used a chimeric probe FmecA945-29(XL)4B3 (SEQ ID NO:5) labeled with fluorescein at the 5′ end and three biotin at the 3′ end. Cycling reactions with crude lysate were performed in a 50 PI reaction containing 25 μl of crude lysates. The lysates were denatured at 95° C. for 2 minutes. CPT reaction was carried out and the final conditions were as follows: 1 pmol chimeric probe, 25 μl of crude lysates, 50 μM EDTA, 0.5 mM spermine, 1.5 μg of RNase H in a final reaction volume of 50 μl. All reactions were cycled in a 60° C. water bath, in microcentrifuge tubes (uncapped) for 50 minutes. Reactions were stopped with the addition of an equal volume of diluted beads (50 μg of beads/reaction in Cycling Buffer and NaCl), while still in the water bath. Binding and detection were carried out as described above. […]

mecA 227 bp amplicon = assay: PCR followed by CPT-EIA detection of amplicon; type: biochemical, Staphylococcus aureus
Protocol: Crude lysates of MSSA (ATCC 11632) and MRSA (ATCC 33592) strains were grown overnight at 37° C. on tryptic soy agar with 5% sheep blood (PML Microbiologicals, Tualatin, Oreg.). A cell suspension was made in TES buffer (20 mM TES (pH 6.8), 0.05% Triton X-100) to obtain a cell density equivalent to a 5×McFarland#5 standard of turbidity (7.5×10^9 cells/ml). The cells were lysed with 150 U/ml achromopeptidase (Wako ) for 25 min at 37° C. After lysis, the cells were stored at −20° C. Adequate dilutions were made in deionized sterile water.
The PCR reaction was carried out in a 25 μl reaction containing 20 mM Tris,(pH 8.3) 1.5 MM MgCl2 0.2 mM dNTPs (Pharmacia), 6.25 pmol of each primer (Table 1) and 0.5 U AmpliTaq Gold (Perkin Elmer). The PTC-100 Programmable Thermal Cycler (MJ Research, Inc.) was used with the following PCR program: 95° C. for 10 min., 20×(94° C. for 40 s, 53° C. for 40 s and 72° C. for 1.5 min). The reaction was submitted to a final extension step at 72° C. for 5 min. and then held at 4° C. prior to analysis. PCR reactions were analyzed by CPT as described below or using a 2% agarose gel and ethidium bromide (Et-Br) staining.
The 227 bp mecA PCR product was used as a standard to determine the sensitivity of CPT-EIA and Et-Br stained gels. The amplicon was prepared as follows: several 100 μl reactions were subjected to 30 cycle PCR and the amplicon was purified using a Qiagen PCR purification kit as recommended by the manufacturer. The 227 bp product was quantified by spectrophometer and used as a standard.
CPT-EIA. The 25 μl PCR reaction was heat denatured at 95° C. for 2 min and then placed at 54° C. The CPT components in 25 μl were added to the PCR reaction to give a CPT reaction volume of 50 μl. […]

mecA gene [4] = assay: Non-isotopic CPT assay (CPT-EIA) on crude lysates of clinical isolates; type: biochemical, Staphylococcus aureus; settings: n = 51, subtractive CPT assay
From the text: The non-isotopic MRSA Assay which combines CPT with an enzyme immunoassay (CPT-EIA) is schematically illustrated in FIG. 3. This Rapid MRSA Test uses a fluoresceinated and biotinylated chimeric probe which provides an RNase H sensitive scissile linkage when bound to the complementary base sequence of the mecA gene. The uncleaved probe (mecA negative) is detected by binding of the probe to a solid surface and attachment of an antibody conjugated with horse radish peroxidase, which converts a substrate to a colored end product. Cleavage of the probe (mecA positive) prevents binding of the probe-antibody complex to the solid surface thus preventing formation of the colored end product. A result is generated in 90 minutes.
Effective lysis of both MRSA and MSSA were developed and optimized. The composition of the Lysis Reagent is as follows: 200 Units/ml of achromopeptidase (Wako Bioproducts, Wako), 0.02 mg/ml lysostaphin (Sigma, St. Louis, Mo.), 0.05% (v/v) Triton X 100® and 20 mM TES buffer, pH 8.5. […]
After cycling, 100 μl of Binding Reagent (Peroxidase Stabilizing Buffer, DAKO, Mississauga, ON), sheep polyclonal anti-fluorescein-horse radish peroxidase conjugated antibody (1/750 dilution, NEN, Boston, Mass.) was added to the tubes. […] The plate is read using a Vmax plate reader (Molecular Devices) set at OD of 650 nm (OD650).

[5] = 58 isolates, Fluoroskan plate reader, relative to culture and PCR resolution
[6] = 120 isolates, 1 pmol probe, Beacon-2000 tube fluorometer
[7] = 120 isolates, Beacon-2000 tube fluorometer

**Q.** How did the MIC ([1]; 4 S. aureus isolates lacking mecA, oxacillin agar screen positive) turn out when `Cc1onc(-c2ccccc2)c1C(=O)N[C@@H]1C(=O)N2[C@@H]1SC(C)(C)[C@@H]2C(=O)O` [oxacillin] was run?
**A.** 3 to 16 µg/mL (≈ 7.47 to 39.9 µM)

**Q.** What about the MIC ([1]; additional 31 S. aureus isolates lacking mecA, E test) of the same compound?
**A.** 3 to 12 µg/mL (≈ 7.47 to 29.9 µM)

**Q.** What about the “susceptibility by disk diffusion” value [2] of the same compound?
**A.** susceptible

**Q.** “FmecA945-29(XL)4B3 (DNA AATAGAGAAAAAGAAAAAAGATGGCAAAG; fluorescein and biotin labels, chimeric DNA/RNA, further chemistry not given here)” was tested. Which “sensitivity for detection of the mecA gene” value (mecA gene [3]; [5]) did it give?
**A.** 100%

**Q.** What about the “specificity for detection of the mecA gene” value (mecA gene [3]; [5]) of the same compound?
**A.** 100%

**Q.** What about the “range of fluorescence of MRSA samples” value (mecA gene [3]; [6]) of the same compound?
**A.** 144.2-191.9

**Q.** What about the “range of fluorescence of MSSA samples” value (mecA gene [3]; [6]) of the same compound?
**A.** 58.1-101.7 RFU

**Q.** What about the “net gap between the highest MSSA sample and the lowest MRSA” value (mecA gene [3]; [7]) of the same compound?
**A.** 42.5 RFU

**Q.** And the sensitivity (mecA gene [3]; [7])?
**A.** 100%

**Q.** What about the specificity (mecA gene [3]; [7]) of the same compound?
**A.** 98%

**Q.** With “FmecA945-29B (DNA AATAGAGAAAAAGAAAAAAGATGGCAAAG; sugars from the 5' end d13 r4 d12, 5' {Fluorescein}, 3' {Biotin}, backbone and methylation of C not given here; further chemistry not fully specified)” as the compound, how does the “starting MRSA cells whose amplicon CPT-EIA could detect” value (mecA 227 bp amplicon; 20 cycle PCR, serial dilution of crude lysates) read?
**A.** ≥ 100 cells

**Q.** What about the probe cleaved (mecA 227 bp amplicon; 100 MRSA cell equivalent samples, 20 cycle PCR) of the same compound?
**A.** 80%

**Q.** And the “number of times the target is cycled in CPT” value (mecA 227 bp amplicon; 100 MRSA cell equivalents, assuming 100% PCR efficiency (175 amol))?
**A.** at least 50

**Q.** And the “A650 nm Mean” value (mecA gene [4]; MRSA clinical isolate lysates)?
**A.** 0.053

**Q.** What about the “A650 nm Mean” value (mecA gene [4]; MSSA clinical isolate lysates) of the same compound?
**A.** 0.239
